Laboratory results as given in the NIST ThermoML archive (doi:10.1016/j.jct.2012.04.018).
± gives the expanded uncertainty stated by the source.

Assay: refractive index (other wavelength) (dimensionless)
Details: 100 kPa, Liquid, Wavelength=632.8 nm, He-Ne laser

refractive index (280.98 K)	refractive index (281.89 K)	refractive index (283.78 K)	refractive index (286.19 K)	refractive index (288.04 K)	refractive index (290.13 K)	refractive index (280.08 K)	refractive index (281.97 K)	refractive index (283.66 K)	refractive index (285.71 K)	refractive index (287.84 K)	refractive index (290.47 K)	SMILES
1.5309 ± 0.0003	1.5304 ± 0.0003	1.5296 ± 0.0003	1.5284 ± 0.0003	1.5275 ± 0.0003	1.5266 ± 0.0003							N#Cc1ccccc1 [benzonitrile]
						1.4216 ± 0.0003	1.4209 ± 0.0003	1.4201 ± 0.0003	1.4192 ± 0.0003	1.4182 ± 0.0003	1.4171 ± 0.0003	CCCCCCCCCCC [undecane]
